Measurements taken from US20110105397A1, “METHOD FOR TREATING HEART FAILURE WITH STRESSCOPIN-LIKE PEPTIDES” (priority 2009, published 2011).
pKi: −log10 of the molar value. “And” between values parts separate entries of the source, which are not always exact repeats. Equal values may be shown once. Read-outs that look alike come from different tables or passages of the source.

Tests used:
human CRHR2 [1] = target: T1, human CRHR2 (Homo sapiens, UniProt Q13324); assay: cAMP assay, h-CRHR2 transfected SK-N-MC cells; format: cell-based; details: for nH (Hill slope) / αmax (maximal asymptote): h-CRHR2; for αmax (maximal asymptote): in %
T1 construct: expressed in transfected cells
T1 sequence (Q13324 1-411): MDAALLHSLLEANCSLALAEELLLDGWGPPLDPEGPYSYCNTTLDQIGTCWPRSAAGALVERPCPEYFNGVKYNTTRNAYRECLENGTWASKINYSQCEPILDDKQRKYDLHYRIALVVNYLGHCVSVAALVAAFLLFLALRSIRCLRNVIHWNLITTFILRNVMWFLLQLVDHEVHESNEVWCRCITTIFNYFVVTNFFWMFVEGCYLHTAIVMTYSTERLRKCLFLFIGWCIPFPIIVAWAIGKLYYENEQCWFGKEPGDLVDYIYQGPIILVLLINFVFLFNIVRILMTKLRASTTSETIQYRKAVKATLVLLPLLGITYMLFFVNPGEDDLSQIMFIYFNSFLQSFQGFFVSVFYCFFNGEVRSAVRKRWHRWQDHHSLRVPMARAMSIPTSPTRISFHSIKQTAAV
Procedure, shortened: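 SK-N-MC cells stably expressing human CRHR2 were treated with peptides (1 pM to 1 μM) for 60 min at 37 °C in IBMX-containing medium, with 10 μM forskolin as positive control. Cells were lysed with 0.5 M HCl and cAMP measured by [125I]-cAMP competition flash plate. A50 came from Hill-equation fits, normalised to h-SCP maximum.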

human CRHR2 [2] = target: T1, human CRHR2; assay: CRHR2 radioligand binding, [125I]-anti-sauvagine-30, SK-N-MC membranes; details: for pKi / nH: CRHR2
Method: The binding profile of h-SCP (SEQ ID NO:1) at CRHR2 was determined in radioligand binding studies in a membrane preparation of SK-N-MC cells stably transfected with human CRHR2 using [^125I]-anti-sauvagine-30 as the radiolabel. […] The solution was then homogenized with a Polytron tissue grinder at a setting of 10 and 7×3 s (Brinkmann Instruments, Westbury, N.Y.). […] The supernatant was re-centrifuged at 26,892×g for 25 min at 4° Celsius with the final pellet being re-suspended in assay buffer. […] For competition studies, cell membranes of […] volume were incubated with either 60 pM [^125I]-anti-sauvagine-30 in 50 μl volume for the CRHR2 assay or with)[^125I]-([…]-sauvagine for the CRHR1 assay in the presence of 15 μl of competing ligand for 120 min having a total volume of 150 μl. […] The bound radioactivity was separated by filtration using a Multiscreen Resist manifold (Millipore Corp., Billerica, Mass., U.S.A). The filters were washed three times with ice-cold PBS at pH 7.5 and radioactivity retained on the filters was quantified by its liquid scintillation measured by a TopCount counter (Packard BioScience, Boston, Mass., U.S.A). All experiments were performed in triplicate. Data from individual competition curves were expressed as the percentage of specific [^125I]-anti-sauvagine-30 or)[^125I]-([…]-sauvagine binding (B) within each experiment. […] The competition curve obtained with h-SCP (SEQ ID NO:1) was biphasic.

[3] = Table 11, h-CRHR2 transfected SK-N-MC cells, 1 hr at 37° Celsius, read-out: pA50 (Experimental) (converted)

What does the source list for “H-TKFTLSLDVPTNIMNLLFNIAKAKNLRAQAAANAHLMAQI-NH2 [SEQ ID NO: 1, TKFTLSLDVPTNIMNLLFNIAKAKNLRAQAAANAHLMAQI-NH2]”?
nH (Hill slope) (human CRHR2 [1]; Table 11, listed as h-SCP): 0.99 and 1.04 and 1.39 and 1.55; αmax (maximal asymptote) (human CRHR2 [1]; Table 11, listed as h-SCP): 99.31 and 97.53 and 116.1 and 98.2; EC50 (human CRHR2 [1]; [3]): 0.389 nM and 0.708 nM and 0.437 nM and 0.407 nM; nH (human CRHR2 [1]; Table 12): 1.18; αmax (human CRHR2 [1]; Table 12, normalized to the maximum response to h-SCP): 98.68; EC50 (human CRHR2 [1]; Table 13, cysteine mutation, N-ethylmaleimide capping, pegylation, read-out: pA50 (converted)): 0.182 to 0.339 nM; nH (human CRHR2 [1]; Table 14): 1.26; αmax (human CRHR2 [1]; Table 14, % of the maximum response obtained to h-SCP): 100.1%; EC50 (human CRHR2 [1]; Table 14, read-out: pA50 (converted)): 0.398 nM; pKi (human CRHR2 [2]): 5.71; nH (human CRHR2 [2]): 1.00 ± 0.04; competition curve / binding profile (human CRHR2 [2]; CRHR2, [125I]-anti-sauvagine-30): biphasic; IC50 (human CRHR2 [2]; biphasic competition curve, read-out: low pIC50 (low affinity receptor binding state) (converted)): 251 nM

How did the “nH (Hill slope)” value (human CRHR2 [1]; Table 11, listed as h-SRP) turn out when “H-HPGSRIVLSLDVPIGLLQILLEQARARAAREQATTNARILARV-NH2 [SEQ ID NO: 117, HPGSRIVLSLDVPIGLLQILLEQARARAAREQATTNARILARV-NH2, reference compound]” was run?
The value was 1.08 and 1.06 and 0.99.

What about the “αmax (maximal asymptote)” value (human CRHR2 [1]; Table 11, listed as h-SRP) of the same molecule?
The value was 113.5 and 108.7 and 98.56.

What about the EC50 (human CRHR2 [1]; [3]) of the same molecule?
Its EC50 is 0.479 nM and 0.263 nM and 0.589 nM.

And the pKi (human CRHR2 [2])?
The pKi was 7.57.

And the nH (human CRHR2 [2])?
Its nH is 1.26 ± 0.14.

With `CC[C@H](C)[C@H](NC(=O)[C@H](CO)NC(=O)[C@H](CC(C)C)NC(=O)[C@@H]1CCCN1C(=O)[C@@H]1CCCN1C(=O)[C@H](CC(=O)O)NC(=O)[C@@H](N)CC(=O)O)C(=O)N[C@@H](CC(=O)O)C(=O)N[C@@H](CC(C)C)C(=O)N[C@H](C(=O)N[C@@H](Cc1ccccc1)C(=O)N[C@@H](Cc1c[nH]cn1)C(=O)N[C@@H](CC(C)C)C(=O)N[C@@H](CC(C)C)C(=O)N[C@@H](CCCNC(=N)N)C(=O)N[C@H](C(=O)N[C@@H](CC(C)C)C(=O)N[C@@H](CC(C)C)C(=O)N[C@@H](CCC(=O)O)C(=O)N[C@@H](CC(C)C)C(=O)N[C@@H](C)C(=O)N[C@@H](CCCNC(=N)N)C(=O)N[C@H](C(=O)N[C@@H](CCC(N)=O)C(=O)N[C@@H](CO)C(=O)N[C@@H](CCC(N)=O)C(=O)N[C@@H](CCCNC(=N)N)C(=O)N[C@@H](CCC(=O)O)C(=O)N[C@@H](CCCNC(=N)N)C(=O)N[C@@H](C)C(=O)N[C@@H](CCC(=O)O)C(=O)N[C@@H](CCC(N)=O)C(=O)N[C@@H](CC(N)=O)C(=O)N[C@@H](CCCNC(=N)N)C(=O)N[C@H](C(=O)N[C@H](C(=O)N[C@@H](Cc1ccccc1)C(=O)N[C@@H](CC(=O)O)C(=O)N[C@@H](CO)C(=O)N[C@H](C(N)=O)C(C)C)[C@@H](C)CC)[C@@H](C)CC)[C@@H](C)O)[C@@H](C)O)[C@@H](C)O` [SEQ ID NO: 114, DDPPLSIDLTFHLLRTLLELARTQSQRERAEQNRIIFDSV-NH2] as the molecule, how does the “nH (Hill slope)” value (human CRHR2 [1]; Table 11) read?
Its value is 1.07.

What about the “αmax (maximal asymptote)” value (human CRHR2 [1]; Table 11) of the same molecule?
Its value is 110.5.

What about the EC50 (human CRHR2 [1]; [3]) of the same molecule?
Its EC50 is 0.832 nM.

What about the pKi (human CRHR2 [2]) of the same molecule?
Its pKi is 8.51.

What about the nH (human CRHR2 [2]) of the same molecule?
Its nH is 1.19 ± 0.14.
